Test results as given in patent publication US9174982B2, “Apoptosis-inducing agents for the treatment of cancer and immune and autoimmune diseases” (AbbVie Inc., priority 2009, dated 2015).

Key:
[1] = system: RS4;11 cells; test: RS4;11 cell viability assay; format: cell-based; conditions: 10% human serum, 48 hours, CellTiter Glo
Method: Cell cytotoxicity EC50 values were assessed using CellTiter Glo (Promega) according to the manufacturer's recommendations. The EC50 values were determined as a percentage of viable cells following treatment compared to the untreated control cells.

[2] = biological target: GST-Bcl-2 (Homo sapiens (Human), UniProt P10415); test: Time Resolved-Fluorescence Resonance Energy Transfer (TR-FRET) Bcl-2 binding assay; conditions: GST-Bcl-2 1 nM, F-Bak peptide probe 100 nM, Tb-anti-GST 1 nM; 3 hours at room temperature; < means below limit of detection
GST-Bcl-2, sequence (P10415 whole entry): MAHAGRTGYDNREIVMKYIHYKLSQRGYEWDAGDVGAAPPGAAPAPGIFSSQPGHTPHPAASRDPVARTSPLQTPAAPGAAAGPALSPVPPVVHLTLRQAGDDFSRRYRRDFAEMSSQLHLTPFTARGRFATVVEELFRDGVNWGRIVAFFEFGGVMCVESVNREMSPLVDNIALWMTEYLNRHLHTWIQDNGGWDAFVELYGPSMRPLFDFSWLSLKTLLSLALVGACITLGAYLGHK

[3] = stability of coupling product during workup and chromatography, monitored by HPLC/MS; format: physicochemical; conditions: peak disappeared during workup and chromatography
Method: Specifically, this was discovered by the inventors in the following compound preparation. The intermediate structure F, that directly precedes the final product of the unstable compound, was prepared according to the route below. All intermediates A-F were stable and isolable using techniques known to those skilled in the art.
Intermediate F, shown in the scheme above, was reacted with intermediate G using standard coupling conditions that are known to those skilled in the art. The reaction mixture was analyzed via HPLC/MS to monitor the formation of a peak corresponding to the compound H. While this peak formed within hours of initiating the reaction below, the peak progressively disappeared during workup and chromatography, until it no longer was present. The lack of stability of the putative compound originates from the position of the nitrogen within the fused ring-system described above. This position, which is adjacent to the oxygen-bearing carbon in the 5-substituted-1H-pyrrolo[2,3-c]pyridine ring system shown below and described above, makes the compound H unstable.

[4] = system: RS4;11 cells; conditions: Blood, 2008, Vol. 111, 2300-2309; cited from earlier work

| stability [3] | Compound | EC50 [1] [nM] | Ki [2] [nM] | sensitivity of RS4; 11 cells to the inhibitor [4] |
| --- | --- | --- | --- | --- |
|  | CC1(C)CCC(CN2CCN(c3ccc(C(=O)NS(=O)(=O)c4ccc(OC[C@H]5CC[C@@](C)(O)CC5)c(Cl)c4)c(Oc4cnc5[nH]ccc5c4)c3)CC2)=C(c2ccc(Cl)cc2)C1 [Example 362, N-({3-chloro-4-[(trans-4-hydroxy-4-methylcyclohexyl)methoxy]phenyl}sulfonyl)-4-(4-{[2-(4-chlorophenyl)-4,4-dimethylcyclohex-1-en-1-yl]methyl}piperazin-1-yl)-2-(1H-pyrrolo[2,3-b]pyridin-5-yloxy)benzamide] | 31.7 | 0.016 |  |
|  | C[C@]1(O)CC[C@@H](COc2ncc(S(=O)(=O)NC(=O)c3ccc(N4CCN(CC5=C(c6ccc(Cl)cc6)CC6(CC5)CC6)CC4)cc3Oc3cnc4[nH]ccc4c3)cc2Cl)CC1 [Example 341, N-({5-chloro-6-[(trans-4-hydroxy-4-methylcyclohexyl)methoxy]pyridin-3-yl}sulfonyl)-4-(4-{[5-(4-chlorophenyl)spiro[2.5]oct-5-en-6-yl]methyl}piperazin-1-yl)-2-(1H-pyrrolo[2,3-b]pyridin-5-yloxy)benzamide] | 31.7 | < 0.01 |  |
|  | CC1(C)CCC(CN2CCN(c3ccc(C(=O)NS(=O)(=O)c4ccc(NC[C@H]5CC[C@@](C)(O)CC5)c([N+](=O)[O-])c4)c(Oc4cnc5[nH]ccc5c4)c3)CC2)=C(c2ccc(Cl)cc2)C1 [Example 337, 4-(4-{[2-(4-chlorophenyl)-4,4-dimethylcyclohex-1-en-1-yl]methyl}piperazin-1-yl)-N-[(4-{[(trans-4-hydroxy-4-methylcyclohexyl)methyl]amino}-3-nitrophenyl)sulfonyl]-2-(1H-pyrrolo[2,3-b]pyridin-5-yloxy)benzamide] | 1.76 |  |  |
|  | 4-(4-{[2-(4-chlorophenyl)-4,4-dimethylcyclohex-1-en-1-yl]methyl}piperazin-1-yl)-N-({3-(pentafluoro-lambda-6-sulfanyl)-4-[(tetrahydro-2H-pyran-4-ylmethyl)amino]phenyl}sulfonyl)-2-(1H-pyrrolo[2,3-b]pyridin-5-yloxy)benzamide [Example 233] | > 1000 | 1.65 |  |
|  | 4-(4-{[2-(4-chlorophenyl)-4,4-dimethylcyclohex-1-en-1-yl]methyl}piperazin-1-yl)-N-[(4-{[(3R)-1-(2-fluoroethyl)pyrrolidin-3-yl]amino}-3-nitrophenyl)sulfonyl]-2-(1H-pyrrolo[2,b]pyridin-5-yloxy)benzamide [Example 183] | 17.5 | < 0.01 |  |
|  | CC[C@]1(O)CC[C@H](CNc2ccc(S(=O)(=O)NC(=O)c3ccc(N4CCN(CC5=C(c6ccc(Cl)cc6)CC(C)(C)CC5)CC4)cc3Oc3cnc4[nH]ccc4c3)cc2[N+](=O)[O-])CC1 [Example 359, 4-(4-{[2-(4-chlorophenyl)-4,4-dimethylcyclohex-1-en-1-yl]methyl}piperazin-1-yl)-N-[(4-{[(cis-4-ethyl-4-hydroxycyclohexyl)methyl]amino}-3-nitrophenyl)sulfonyl]-2-(1H-pyrrolo[2,3-b]pyridin-5-yloxy)benzamide] |  | < 0.01 |  |
|  | CC1(C)CCC(CN2CCN(c3ccc(C(=O)NS(=O)(=O)c4cnc(NC[C@H]5CC[C@](C)(O)CC5)c([N+](=O)[O-])c4)c(Oc4cnc5[nH]ccc5c4)c3)CC2)=C(c2ccc(Cl)cc2)C1 [Example 376, 4-(4-{[2-(4-chlorophenyl)-4,4-dimethylcyclohex-1-en-1-yl]methyl}piperazin-1-yl)-N-[(6-{[(cis-4-hydroxy-4-methylcyclohexyl)methyl]amino}-5-nitropyridin-3-yl)sulfonyl]-2-(1H-pyrrolo[2,3-b]pyridin-5-yloxy)benzamide] |  | < 0.001 |  |
|  | 4-(4-{[2-(4-chlorophenyl)-4,4-dimethylcyclohex-1-en-1-yl]methyl}piperazin-1-yl)-N-{[4-({[(Z)-4-hydroxy-1-adamantyl]methyl}amino)-3-nitrophenyl]sulfonyl}-2-(1H-pyrrolo[2,3-b]pyridin-5-yloxy)benzamide [Example 200] | 11 | < 0.01 |  |
| unstable | CC1(C)CCC(CN2CCN(c3ccc(C(=O)NS(=O)(=O)c4ccc(NCC5CCOCC5)c([N+](=O)[O-])c4)c(Oc4cc5cc[nH]c5cn4)c3)CC2)=C(c2ccc(Cl)cc2)C1 [compound H] |  |  |  |
|  | 4-(4-{[2-(4-chlorophenyl)-4,4-dimethylcyclohex-1-en-1-yl]methyl}piperazin-1-yl)-N-{[4-({[(E)-4-hydroxy-1-adamantyl]methyl}amino)-3-nitrophenyl]sulfonyl}-2-(1H-pyrrolo[2,3-b]pyridin-5-yloxy)benzamide [Example 199] | 5.06 | < 0.01 |  |
|  | CC1(C)CCC(CN2CCN(c3ccc(C(=O)NS(=O)(=O)c4ccc(OCC5COCCN5C5CCOCC5)c([N+](=O)[O-])c4)c(Oc4cnc5[nH]ccc5c4)c3)CC2)=C(c2ccc(Cl)cc2)C1 (stereo not drawn) [Example 104, 4-(4-{[2-(4-chlorophenyl)-4,4-dimethylcyclohex-1-en-1-yl]methyl}piperazin-1-yl)-N({3-nitro-4-[(4-tetrahydro-2H-pyran-4-ylmorpholin-3-yl)methoxy]phenyl}sulfonyl)-2-(1H-pyrrolo[2,3-b]pyridin-5-yloxy)benzamide] | 71.2 | 0.016 |  |
|  | CCC1(O)CCC(CNc2ccc(S(=O)(=O)NC(=O)c3ccc(N4CCN(CC5=C(c6ccc(Cl)cc6)CC(C)(C)CC5)CC4)cc3Oc3cnc4[nH]ccc4c3)cc2[N+](=O)[O-])CC1 (stereo not drawn) [Example 358, 4-(4-{[2-(4-chlorophenyl)-4,4-dimethylcyclohex-1-en-1-yl]methyl}piperazin-1-yl)-N-[(4-{[(trans-4-ethyl-4-hydroxycyclohexyl)methyl]amino}-3-nitrophenyl)sulfonyl]-2-(1H-pyrrolo[2,3-b]pyridin-5-yloxy)benzamide] |  | < 0.01 |  |
|  | CC1(C)CCC(CN2CCN(c3ccc(C(=O)NS(=O)(=O)c4cnc(OC[C@]5(F)CC[C@@H](O)CC5)c(Cl)c4)c(Oc4cnc5[nH]ccc5c4)c3)CC2)=C(c2ccc(Cl)cc2)C1 [Example 350, N-({5-chloro-6-[(cis-1-fluoro-4-hydroxycyclohexyl)methoxy]pyridin-3-yl}sulfonyl)-4-(4-{[2-(4-chlorophenyl)-4,4-dimethylcyclohex-1-en-1-yl]methyl}piperazin-1-yl)-2-(1H-pyrrolo[2,3-b]pyridin-5-yloxy)benzamide] |  | < 0.01 |  |
|  | CC1(C)CCC(CN2CCN(c3ccc(C(=O)NS(=O)(=O)c4cnc(NC[C@H]5CC[C@@](C)(O)CC5)c([N+](=O)[O-])c4)c(Oc4cnc5[nH]ccc5c4)c3)CC2)=C(c2ccc(Cl)cc2)C1 [Example 371, 4-(4-{[2-(4-chlorophenyl)-4,4-dimethylcyclohex-1-en-1-yl]methyl}piperazin-1-yl)-N-[(6-{[(trans-4-hydroxy-4-methylcyclohexyl)methyl]amino}-5-nitropyridin-3-yl)sulfonyl]-2-(1H-pyrrolo[2,3-b]pyridin-5-yloxy)benzamide] |  | < 0.001 |  |
|  | COC1(C)CCC(c2ccc(Cl)cc2)=C(CN2CCN(c3ccc(C(=O)NS(=O)(=O)c4ccc(NC[C@H]5CC[C@@](C)(O)CC5)c([N+](=O)[O-])c4)c(Oc4cnc5[nH]ccc5c4)c3)CC2)C1 (stereo partly drawn) [Example 377, 4-(4-{[2-(4-chlorophenyl)-5-methoxy-5-methylcyclohex-1-en-1-yl]methyl}piperazin-1-yl)-N-[(4-{[(trans-4-hydroxy-4-methylcyclohexyl)methyl]amino}-3-nitrophenyl)sulfonyl]-2-(1H-pyrrolo[2,3-b]pyridin-5-yloxy)benzamide] |  | < 0.001 |  |
|  | 4-(4-{[2-(4-chlorophenyl)-4,4-dimethylcyclohex-1-en-1-yl]methyl}piperazin-1-yl)-N-{[4-({[cis-3-morpholin-4-ylcyclopentyl]methyl}amino)-3-nitrophenyl]sulfonyl}-2-(1H-pyrrolo[2,3-b]pyridin-5-yloxy)benzamide [Example 188] | 16.4 |  |  |
|  | CN(C)CC[C@H](CSc1ccccc1)Nc1ccc(S(=O)(=O)NC(=O)c2ccc(N3CCN(Cc4ccccc4-c4ccc(Cl)cc4)CC3)cc2)cc1[N+](=O)[O-] [ABT-737, N-(4-(4-((4′-chloro(1,1′-biphenyl)-2-yl)methyl)piperazin-1-yl)benzoyl)-4-(((1R)-3-(dimethylamino)-1-((phenylsulfanyl)methyl)propyl)amino)-3-nitrobenzenesulfonamide] |  |  | sensitive |
